GI50 data for 4 compounds are collected here from patent US20230082430A1 (C4 Therapeutics, Inc., priority 2019, published 2023).

Structures are written as SMILES.

The assay deals with NCIH929.1 cells. In words: Cell viability assay for Table 1 (CellTiter-Glo 2.0, ATP quantification, 96 hr). The assay is classed as cell-based. Conditions: NCIH929.1 cell viability, top concentration 1 μM, 10 points half log titration, cytostatic control. On the procedure:
Example 171. Cell Viability Assay for Table 1
RPMI 1640 medium, fetal bovine serum (FBS) and 2-mercaptoethanol were purchased from Gibco (Grand Island, N.Y., USA). CellTiter-Glo® 2.0 Assay was purchased from Promega (Madison, Wis., USA). NCIH929.1 cell line was purchased from ATCC (Manassas, Va., USA). Cell culture flasks and 384-well microplates were acquired from VWR (Radnor, Pa., USA).
At the same day of compound treatment, CellTiter-Glo® 2.0 was added to a plate with cells treated in the absence of the test compound to establish Cytostatic control value (Gm).
Background: ATP-based viability assays read luminescence as a measure of living cells.
The term GI50 denotes the concentration giving 50% growth inhibition. Higher therefore signals less potent growth inhibition. In turn, `CC1(C(=O)N2CCC(n3cc(Cc4ccc5c6c(cccc46)C(=O)N5C4CCC(=O)NC4=O)cn3)CC2)CCC1` (stereo not shown) [Compound 4, 3-(6-((1-(1-(1-Methylcyclobutane-1-carbonyl)piperidin-4-yl)-1H-pyrazol-4-yl)methyl)-2-oxobenzo[cd]indol-1(2H)-yl)piperidine-2,6-dione] showed a GI50 of under 1 nM. The same measure for `CC1(n2cc(Cc3ccc4c5c(cccc35)C(=O)N4C3CCC(=O)NC3=O)cn2)CCN(C(=O)C23C4C5C6C4C2C6C53)CC1` (stereo not shown) [Compound 18, 3-(6-((1-(1-(Cubane-1-carbonyl)-4-methylpiperidin-4-yl)-1H-pyrazol-4-yl)methyl)-2-oxobenzo[cd]indol-1(2H)-yl)piperidine-2,6-dione]: under 1 nM. For the compound `O=C1CCC(N2C(=O)c3cccc4c(Cc5cnn(C6CCN(C(=O)C78C9C%10C%11C9C7C%11C%108)CC6)c5)ccc2c34)C(=O)N1` (stereo not shown) [Compound 3, 3-(6-((1-(1-(Cubane-1-carbonyl)piperidin-4-yl)-1H-pyrazol-4-yl)methyl)-2-oxobenzo[cd]indol-1(2H)-yl)piperidine-2,6-dione], the concentration for 50% growth inhibition (GI50) is under 1 nM. The compound `CC(C)(C)OC(=O)N1CCC(n2cc(Cc3ccc4c5c(cccc35)C(=O)N4C3CCC(=O)NC3=O)cn2)CC1` (stereo not shown) [Compound 2, tert-Butyl 4-(4-((1-(2,6-Dioxopiperidin-3-yl)-2-oxo-1,2-dihydrobenzo[cd]indol-6-yl)methyl)-1H-pyrazol-1-yl)piperidine-1-carboxylate] gave a 50% growth inhibitory concentration (GI50) of under 1 nM.
